Reference: patent EP4417202A1, “ANTI-CANCER ACTION OF BAG1-SELECTIVE IMIDAZOPYRIDINE COMPOUNDS IN STEROID HORMONE RECEPTOR-POSITIVE BREAST AND PROSTATE CANCER” (Karlsruher Institut für Technologie, priority 2023, dated 2024)

Experiments:
[1] = system: ER^+ and AR^+ breast and prostate cancer cells; conditions: proliferation of ER^+ and AR^+ breast and prostate cancer cells, previously reported; cited from earlier work
ZR75-1 = assay: Clonogenic assay (clonal expansion); assay type: cell-based; conditions: Breast Cancer (ZR75-1), ER+, inhibition of clonal expansion
Protocol: (§1) Cells were seeded at a density of 1-2×10^3 cells/well in a 6 well plate in RPMI 1640 supplemented with 10% FBS, penicillin (100 u/ml), streptomycin (100 u/ml), and L-glutamine (2 mM). Cells were treated with increasing concentrations of X15695 and cultured for 14 to 21 days. Medium and compounds were exchanged after 7 days. Cells were fixed with methanol/ acetic acid mixture (3:1 v/v) and the formation of colonies was visualized using 0.5% crystal violet (w/v) in 20% methanol (v/v). Plates were scanned in a conventional office scanner (Epson). The area covered by colonies was calculated using the ColonyArea Plugin for ImageJ.

22Rv.1 = assay: Clonogenic assay (clonal expansion); assay type: cell-based; conditions: Prostate Cancer (22Rv.1), AR+, inhibition of clonal expansion
Protocol: as §1

MCF-7 = assay: Clonogenic assay (clonal expansion); assay type: cell-based; conditions: Breast Cancer (MCF-7), ER+, inhibition of clonal expansion
Protocol: as §1

LNCaP = assay: Clonogenic assay (clonal expansion); assay type: cell-based; conditions: Prostate Cancer (LNCaP), AR+, inhibition of clonal expansion
Protocol: as §1

T47D = assay: Clonogenic assay (clonal expansion); assay type: cell-based; conditions: Homo sapiens; Breast Cancer (T47D), ER+; inhibition of clonal expansion
Protocol: as §1

PC3 = assay: Clonogenic assay (clonal expansion); assay type: cell-based; conditions: Homo sapiens; Prostate Cancer (PC3), AR-; inhibition of clonal expansion
Protocol: as §1

DU145 = assay: Clonogenic assay (clonal expansion); assay type: cell-based; conditions: Homo sapiens, DU-145; Prostate Cancer (DU145), AR-; inhibition of clonal expansion
Protocol: as §1

ERα = conditions: MCF-7 cells
Protocol: For Western blotting, cells were lysed in NP-40 lysis buffer (1% NP-40, 50 mM Tris-HCl, pH 8.0, 150 mM NaCl, 5 mM EDTA) or 1× passive lysis buffer (Promega, Germany) for 15 min on ice. Cell debris was removed by centrifugation at 13,000 rpm for 10 min and used for SDS-polyacrylamide gel electrophoresis (PAGE) and Western blotting.
Western Blotting was carried out using standard protocols with antibodies: p53 (clone DO1), p53 (Sp5, Thermo Fisher Scientific Karlsruhe, Germany), Mdm2 (4B2, Abcam, Cambridge, UK). […] Secondary goat anti-mouse and goat anti-rabbit antibodies were purchased from DAKO (Bollschweil, Germany).

TRMCF-7 cells = assay: Clonogenic assay (clonal expansion); assay type: cell-based
Protocol: as §1

[2] = system: TRMCF-7 cells (tamoxifen resistant MCF-7 cells); assay: MTT cell viability assay; assay type: cell-based; conditions: 48 h
Protocol: […] Cells transfected with siRNA were incubated for 72 h after X15695 addition. Thereafter, the medium was exchanged for a fresh medium containing 0.5 mg/ml MTT (Sigma-Aldrich) and incubated at 37°C for 1 h to 4 h (depending on cell line) until intracellular purple formazan crystals were formed. The MTT solution was removed, and the purple crystals were dissolved in isopropanol and the optical absorbance at 595 nm was recorded using SpectraMax iD3, Molecular Devices, San Jose, CA, USA.

For `Fc1ccc(-c2nc3cc(C(F)(F)F)ccc3s2)cc1` [Compound A4B17, reference compound], the IC50 values [1] is listed as “in the micromolar range”, the IC50 (ZR75-1) is listed as 110 nM and the IC50 (22Rv.1) is listed as 3400 nM. It also gave an IC50 (MCF-7) of 1280 nM and an IC50 (LNCaP) of 1600 nM.
Compound `Fc1ccc(-c2cn3cc(Br)ccc3n2)cc1` [Compound X19168, 6-bromo-2-(4-fluorophenyl)imidazo[1,2-a]pyridine] has an IC50 (22Rv.1; Homo sapiens, 22Rv1) of 641 ± 246 nM and an IC50 (MCF-7; Homo sapiens, MCF7) of 12 nM.
Work on `Fc1ccccc1-c1cn2cc(C(F)(F)F)cc(Cl)c2n1` [Compound X19720, 8-Chloro-2-(2-fluorophenyl)-6-(trifluoromethyl)imidazo[1,2-a]pyridine] yielded an IC50 (22Rv.1; Homo sapiens, 22Rv1) of 4.4 ± 1.6 nM, an IC50 (MCF-7; Homo sapiens, MCF7) of 14.5 nM and an IC50 (LNCaP; Homo sapiens) of under 0.1 nM.
In the case of `Cc1cc(Cl)c2nc(-c3ccc(F)cc3)cn2c1` [Compound X19724, 8-Chloro-2-(4-fluorophenyl)-6-methylimidazo[1,2-a]pyridine], the IC50 (ZR75-1; Homo sapiens, ZR-75-1) is reported as 16.2 ± 4.7 nM, the IC50 (T47D) is reported as 86.1 ± 49.1 nM and the IC50 (22Rv.1; Homo sapiens, 22Rv1) is reported as 4.4 nM. For the same compound, the IC50 (MCF-7; Homo sapiens, MCF7) was 3.3 ± 0.9 nM and the IC50 (LNCaP; Homo sapiens) was 0.2 nM.
Work on `Cc1cc(Cl)c2nc(-c3ccccc3)cn2c1` [Compound X19728, 8-Chloro-6-methyl-2-phenylimidazo[1,2-a]pyridine] yielded an IC50 (ZR75-1; Homo sapiens, ZR-75-1) of 39.2 ± 24.3 nM, an IC50 (22Rv.1; Homo sapiens, 22Rv1) of 48.5 ± 13.3 nM and an IC50 (MCF-7; Homo sapiens, MCF7) of 6 ± 2.8 nM.
`Fc1ccc(-c2cn3cc(C(F)(F)F)ccc3n2)cc1` [Compound X20046, 2-(4-Fluorophenyl)-6-(trifluoromethyl)imidazo[1,2-a]pyridine] showed an IC50 (ZR75-1; Homo sapiens, ZR-75-1) of 31.8 nM, an IC50 (T47D) of 57.1 nM and an IC50 (22Rv.1; Homo sapiens, 22Rv1) of 7.5 ± 3.2 nM. The IC50 (MCF-7; Homo sapiens, MCF7) was 10 ± 4.3 nM and the IC50 (LNCaP; Homo sapiens) was 0.1 nM.
`FC(F)(F)c1cc(Cl)c2nc(-c3ccccc3)cn2c1` [X19166/ X15696, 8-Chloro-2-phenyl-6-(trifluoromethyl)imidazo[1,2-a]pyridine] gave an IC50 (ZR75-1; Homo sapiens, ZR-75-1) of 10.2 ± 2.7 nM, an IC50 (T47D) of 44.7 ± 11.4 nM and an IC50 (22Rv.1; Homo sapiens, 22Rv1) of 22.5 ± 6.6 nM. It also gave an IC50 (MCF-7; Homo sapiens, MCF7) of 7.9 ± 1.9 nM, an IC50 (LNCaP; Homo sapiens) of under 0.1 nM and an IC50 (PC3) of 11900 nM. For the same compound, the IC50 (DU145) was 3580 nM.
In the case of `C[C@]12CC[C@@H]3c4ccc(O)cc4C[C@@H](CCCCCCCCC[S+]([O-])CCCC(F)(F)C(F)(F)F)[C@H]3[C@@H]1CC[C@@H]2O` (stereo partly drawn) [fulvestrant, reference compound], the “ERα downregulation over time” value (ERα; 1 µM, time course) is reported as “rapidly downregulated ERα level within 4 h to 8 h recovering gradually thereafter”, the “concentration sufficient to downregulate ERα” value (ERα; 8 h) is reported as at most 1 nM and the “inhibition of clonal expansion” value (TRMCF-7 cells) is reported as “slightly more efficacious than X15695”. The inhibition of viability [2] was “comparable activities”.
With `CC/C(=C(\c1ccccc1)c1ccc(OCCN(C)C)cc1)c1ccccc1` [tamoxifen] the “inhibition of clonal expansion” value (TRMCF-7 cells) was “inactive” and the inhibition of viability [2] was “ineffective”.
